Source: patent US8252740B2, “Thermally-targeted delivery of medicaments including doxorubicin” (The University of Mississippi Medical Center, priority 2006, dated 2012)

Assays:
[1] = test system: MES-SA cells; assay: Caspase activation, FLICA polycaspase assay with flow cytometry; assay type: cell-based, human; settings: 10 μM
Procedure: MES-SA cells were treated for 1 h at 37 or 42° C. with Tat-ELP-GFLG-DOX (SEQ ID NO: 3), the control construct lacking the Tat sequence, with free DOX. Cells were harvested after the 1 h exposure, and caspase activity was detected using a fluorescent caspase inhibitor (Immunochemistry Technologies, Bloomington, Minn.) and flow cytometry.
Caspase activation was measured using a carboxyfluorescein FLICA polycaspase assay (Immunochemistry Technologies, Bloomington, Minn.). Cells were treated as described above with the indicated protein, collected by trypsinization, and stained for 2 h at 37° C. with the carboxyfluorescein FLICA reagent as described by the manufacturer. Cells were rinsed twice and analyzed for caspase activation by flow cytometry using a Cytomics FC 500 flow cytometer (n=5,000 cells). Forward versus side scatter gating was used to eliminate cell debris from the analysis, and a histogram of fluorescein fluorescence (channel FL1) was bimodal with peaks for caspase positive and caspase negative cells. The percentage of caspase positive cells was determined from the histograms and expressed as an average of 3 experiments.
MES-SA cells were treated as described above, cells were harvested after the 1 h exposure, and caspase activity was detected using a fluorescent caspase inhibitor and flow cytometric analysis. […] Cell numbers under each peak were quantified and averaged to determine the percentage of the cell population in which caspases were activated under each treatment condition. […] In fact, the percent of caspase positive cells was enhanced almost 4 fold when cells were treated with Tat-ELP1-GFLG-Dox (SEQ ID NO: 3) at 42° C. versus 37° C. (p<0.05).

[2] = Turbidity assay of the transition temperature (Tt); assay type: physicochemical
Procedure: In order to apply ELP-based polypeptides for drug delivery, a suitable temperature transition must be attained. The drug-labeled ELP should undergo its phase transition between 39 and 42° C., a temperature range sufficiently above normal body temperature to prevent unwanted systemic aggregation, but not hot enough to cause extensive toxicity. Elastin-like polypeptide is ideally suited as a thermally targeted drug carrier because the transition temperature can be easily manipulated by varying the molecular weight or the amino acid composition of the guest residue X in the VPGXG (SEQ ID NO: 2) sequence using simple molecular biology techniques. The transition temperature of Tat-ELP-GFLG-DOX (SEQ ID NO: 3) was assessed by monitoring the turbidity of a solution of the polypeptide while heating in physiological buffer. […] The polypeptide is soluble and the solution is clear at physiological temperature (37° C.).
1.4. Characterization of the Transition Temperature. The temperature induced aggregation of the proteins was characterized by monitoring absorbance at 350 nm while increasing the temperature. For initial analysis of Dox-labeled ELPs, solutions containing 10 μM protein in PBS were heated or cooled at a constant rate of 1° C./min in a temperature-controlled multicell holder in a UV-visible spectrophotometer (Cary 100, Varian instruments). The analysis was repeated with Tat-ELP1-GFLG-Dox (SEQ ID NO: 3) at concentrations ranging from 1 μM to 30 μM in cell culture media in order to determine the concentration dependence of the phase transition under experimental conditions. Absorbance data was converted to percentage of the maximal absorbance for each curve, and the Tt was defined as the temperature at which the OD350 reached 50% of the maximum turbidity. The concentration dependence of the Tt was fit using a logarithmic equation.
3.2. Thermal Properties of the Dox Delivery Vector. […] The Tt of Tat-ELP-GFLG-Dox (SEQ ID NO: 3) was assessed by monitoring the turbidity of a 10 μM solution of the polypeptide while heating in PBS. […]

[3] = test system: MES-SA cells; assay: DIC microscopy of apoptotic cell morphology; assay type: cell-based, human; settings: 10 μM
Procedure: 1.9. Apoptosis Assays. For differential interference contrast (DIC) microscopy, MES-SA cells were plated onto 22 mm^2 coverslips at 50% confluence. Cells were treated as described above with the indicated protein, rinsed with PBS, and mounted onto glass slides. The unfixed cells were imaged immediately using a Zeiss Axiovert 200 DIC microscope with a 40× oil immersion objective and a Coolsnap HQ camera.
2.6. Induction of Apoptosis. […] This effect was documented by treating MES-SA cells adhered to glass cover slips with each construct and imaging them by DIC microscopy. Cells were treated for 1 h as described above, then immediately mounted on slides and imaged without fixation. […] Untreated cells were spread onto the glass, and morphological features such as nuclei and endocytic vesicles were readily visible. This morphology was not altered by simply exposing the cells to hyperthermia. […] However, such effects were minor and limited to a fraction of the cells. […] All cells examined were rounded with no discernable nucleus and fragmented chromosomes.

Substance: Tat-ELP1-GFLG-Dox
- Enhancement of percent caspase positive cells at 42° C. versus 37° C. ([1]; 1 h): ~4 fold
- Caspase activation / apoptosis induction ([1]; 1 h at 37° C.): slightly above control levels
- Caspase activation / apoptosis induction ([1]; 1 h at 42° C.): significantly higher proportion of the population
- Transition temperature (Tt) ([2]; 10 μM in PBS, heated 1° C./min, midpoint of turbidity): 40 °C
- State of the solution at physiological temperature ([2]; 37° C.): soluble
- State of the solution at hyperthermia temperature ([2]; 42° C.): aggregated
- Cell morphology (hallmarks of apoptosis) ([3]; 1 h at 37° C. (below the Tt)): more extensive rounding and blebbing
- Cell morphology (hallmarks of apoptosis) ([3]; 1 h at 42° C. (above the Tt)): normal cell morphology was completely destroyed
